From patent US20120189563A1, “ORAL COMPOSITION FOR ALLEVIATING ULTRAVIOLET IRRADIATION-INDUCED DAMAGE” (Shiseido Company, Ltd., priority 2009, published 2012) come the findings set out here.

In data set [1] the test system is Male hairless mice (Hos: HR-1). The source says: (§1) Male hairless mice (Hos: HR-1, six-week old, Hoshino Laboratory Animals, Inc.) were employed and subjected to a partly modified method by Schwarz et al. (Haratake A. et al. J. Invest. Dermatol. 108:769-775, 1997.) in accordance with the repetitive UV-B irradiation method (Naganuma M. et al. J. Dermatol. Sci. 25:29-35, 2001. Schwartz E. J. Invest. Dermatol. 91:158-161, 1988.) whereby forming wrinkles. Thus, the dorsal region was irradiated with UV-B (light source: Toshiba FL-20 SE fluorescent lamp manufactured by Toshiba Electric) three times a week for 12 weeks. […] The total irradiation dose was 4.482 J/cm^2. The UV dose measured using UVRADIOMETER (UVR-305/365D (II), Topcon Corporation) was employed as a readout. During the UV-B irradiation, 10 mM D-methionine was given via a water supplier bottle. As a control, a tap water was given in the same manner. The water supplier bottle was exchanged once a week.
After the end of the UV irradiation, the skin thickness was measured using a thickness gauge (Mitsutoyo Corporation, PK-1012SU). The measured value of the skin thickness was designated as “skin thickness×2”, since the measurement was conducted by pinching the skin with the thickness gauge.

For data set [2], the system named is human neonatal dermal fibroblast (Cryo NHDF-Neo). In words: Ultraviolet irradiation-induced damage test in cultured cell, post-irradiation addition (Alamar Blue). To be noted: UV-A 8 J/cm^2.
Protocol: The cell employed was a commercially available human neonatal dermal fibroblast (Cryo NHDF-Neo, Sanko-Junyaku Co., Ltd.). This cell was inoculated at 2×10^5 cells/mL to a commercially available culture dish of 35 mm in diameter (BD FALCON 353001, Becton Dickinson Japan), where it was cultured in a commercially available cell culture medium (D-MEM (1 g/L glucose, Wako Pure Chemical Industries, Ltd.) supplemented with 10% fetal bovine serum and 1% antibiotic (15240-062, GIBCO) (hereinafter, referred to as “ordinary medium”). This cell was cultured for about 24 hours in a 5% CO2 and saturated water vapor atmosphere at 37° C. (degrees Celsius).
Thereafter, the culture medium for culturing the cell described above was switched to 1 mL of a BSO medium supplemented with a glutathione biosynthesis inhibitor BSO (L-buthionine-(S,R)-sulfoximine, Wako Pure Chemical Industries, Ltd.) at 1×10^−3%, where the culture was conducted for about 24 hours in a 5% CO2 and saturated water vapor atmosphere at 37° C. […] The BSO medium described above was prepared by a 200-fold dilution of a stock solution containing 0.2% BSO dissolved in ethyl alcohol with the ordinary medium described above.
Ferric chloride (II) was dissolved in a distilled water at 2×10^−3%, and the resultant solution was subjected to a 200-fold dilution (final concentration: 1×10^−5%) with a phosphate buffer solution PBS (+) containing calcium ion and magnesium ion to obtain a medium (hereinafter, referred to as “UV irradiation medium”), which was warmed preliminarily to 37° C. before use.
Before UV-A irradiation, the culture medium was replaced with 1 mL of the UV irradiation medium described above. […] The UV dose was measured using UV RADIOMETER UVR-3036/S (Topcon Corporation).
After the ultraviolet irradiation, the medium was switched back to the ordinary medium described above, and the culture was conducted in a 5% CO2 and saturated water vapor atmosphere at 37° C.
Thereafter, the culture medium was supplemented with Alamar Blue (trade mark, Invitrogen) at a final concentration of 10%, and its supernatant was determined for the fluorescent intensity three hours later with an excitation wavelength of 544 nm and a fluorescent wavelength of 590 nm as described by Ahmed S. A. et al. (J. Immunol. Method. 170, 211-224 (1994)) and in accordance with the manufacture's instruction.
The test system of data set [3] is Male hairless mice (Hos: HR-1). To be noted: Example 2, 10 mM in drinking water.
Source text: as §1
After the irradiation to the mice described above, the dorsal regions of the mice were photographed, and a partly modified method by Bissett et al. (Bissett D L. et al. Photochemistry and Photobiology 46:367-378, 1987.) was employed to evaluate the degree of wrinkling in accordance with the criteria indicated in Table 1 below. […]

Data set [4] deals with human neonatal dermal fibroblast (Cryo NHDF-Neo). Nature of the data set: cells. Particulars: for effect of pre-irradiation addition on viable cells and cell death (in words): pre-irradiation addition 0.001 to 100 μM, UV-A 9 J/cm^2. The method, then:
The ultraviolet irradiation after switching into a medium added with 0.1 μM (micro-molar) D-proline was employed as a positive control, while the ultraviolet irradiation to the medium still being free of such an added amino acid was employed as a negative control.
(degrees Celsius) for 40 hours.

Data set [5] relates to Male hairless mice (Hos: HR-1). Particulars: Example 3, 10 mM in drinking water; for effect on UV-B-induced wrinkling (in words): P=0.55% in Mann-Whitney U test; for number of animals of each wrinkle score after the UV-B irradiation: UV(+) control: one scored 5, two 6, two 7, three 8.
Source text: as §1
After the irradiation to the mice described above, the dorsal regions of the mice were photographed, and a partly modified method by Bissett et al. (Bissett D L. et al. Photochemistry and Photobiology 46:367-378, 1987.) was employed to evaluate the degree of wrinkling in accordance with the criteria indicated in Table 1 below. The wrinkle evaluation was performed separately by four observers, who thereafter consulted together to determine a score about the wrinkle grade (hereinafter, simply referred to as “score”).
During the UV-B irradiation, 10 mM L- or D-methionine was given via a water supplier bottle. The UV irradiation and the wrinkling determination were conducted by the methods described in Example 2.

Where [6] appears, read: Homo sapiens, Fibroblast, light or radiation study, read-out: percentage of the viable cell.

Like-named read-outs stand apart in the source and are kept apart here.

As for `CSCC[C@@H](N)C(=O)O` [D-methionine], the “measured value of the skin thickness (skin thickness×2)” value in data set [1] (10 mM in drinking water during 12 weeks UV-B, total 4.482 J/cm^2, UV(−)/H20 0.81 mm, UV(+)/H20 1.25 mm) worked out at 1.00 mm. In addition, in data set [1] (10 mM in drinking water, UV-B total 4.482 J/cm^2, Bonferroni/Dunn test), the “effect on UV-B-induced skin thickening (in words)” value was “statistically significant reduction in this skin thickening”. Besides, the “percentage of the viable cell (positive control)” value in data set [2] (added at 0.1 μM, called positive control, negative control 64%) was determined as 82%. The “effect of post-irradiation addition on viable cells and cell death (in words)” value in data set [2] (post-irradiation addition 0.01 to 100 μM) was “an increased percentage of the viable cell and a reduced cell death”. Besides, the “percentage of the viable cell” value in data set [2] (post-irradiation addition at 0.01 μM, negative control 64%) is 93%. Further, the “percentage of the viable cell” value in data set [2] (post-irradiation addition at 0.1 μM, negative control 64%) amounted to 84%. Also, the “percentage of the viable cell” value in data set [2] (post-irradiation addition at 1 μM, negative control 64%) came to 82%. Moreover, the “percentage of the viable cell” value in data set [2] (post-irradiation addition at 100 μM, negative control 64%) was 87%. Moreover, the “number of animals of each wrinkle score after the UV-B irradiation” value (“number of animals of each wrinkle score” for short) in data set [3] (UV-B total 4.482 J/cm^2, UV(+) control: 2 scored 4, two 5, one 6, one 7) is “four animals scored 3, two animals scored 4 and one animal scored 5”. The “effect on UV-B-induced wrinkling (in words)” value in data set [3] (P=1.8% in Mann-Whitney U test) was “statistically significant reduction in this wrinkling”. Also, in data set [4] (setting [6]), the viability at 0.01 µM was 102%, the viability at 0.1 µM worked out at 81%, the viability at 1 µM turned out to be 97% and the viability at 10 µM was found to be 114%. Further, the viability at 100 µM in data set [4] (setting [6]) was determined as 76%. Also, the “effect of pre-irradiation addition on viable cells and cell death (in words)” value in data set [4] was “an increased percentage of the viable cell and a reduced cell death”. Moreover, in data set [5], the “effect on UV-B-induced wrinkling (in words)” value is given as “statistically significant reduction in this wrinkling”; the “number of animals of each wrinkle score” value was “six animals scored 5 and two animals scored 6”.
As to `O=C(O)[C@H]1CCCN1` [D-proline, reference compound], the viability at 0.1 µM in data set [4] (setting [6]) came out at 100%.
`CSCC[C@H](N)C(=O)O` [L-methionine]: in data set [4] (setting [6]), the viability at 0.001 µM turned out to be 40%, the viability at 0.01 µM came out at 72%, the viability at 0.1 µM amounted to 67% and the viability at 1 µM is 45%. Moreover, in data set [4] (setting [6]), the viability at 10 µM is 73% and the viability at 100 µM was 62%. Further, in data set [4], the “effect of pre-irradiation addition on viable cells and cell death (in words)” value is “an increased percentage of the viable cell and a reduced cell death”. In data set [5], the “effect on UV-B-induced wrinkling (in words)” value is given as “less effective in reducing the UV-B irradiation-induced wrinkling than D-methionine”; the “number of animals of each wrinkle score” value was “one animal scored 4, two animals scored 5, two animals scored 6 and two animals scored 7”.
